Converted amounts (≈) assume the structure as drawn.
Key:
[1] = Aqueous solubility of the compound at pH 7.4; format: physicochemical; settings: buffer
[2] = Plasma concentration in human NCI-H1975 cell xenografted mouse at 25 mg/kg, iv after 6 hrs; format: ADME, organism-based; set-up: dose 25 mg/kg, route intravenous
[3] = Plasma concentration in human NCI-H1975 cell xenografted mouse at 25 mg/kg, iv after 24 hrs; format: ADME, organism-based; set-up: dose 25 mg/kg, route intravenous
[4] = Drug level in tumor in human NCI-H1975 cell xenografted mouse at 25 mg/kg, iv after 6 hrs; format: ADME, organism-based, Neoplasm; set-up: dose 25 mg/kg, route intravenous; settings: read-out: Drug uptake
[5] = Drug level in tumor in human NCI-H1975 cell xenografted mouse at 25 mg/kg, iv after 24 hrs; format: ADME, organism-based, Neoplasm; set-up: dose 25 mg/kg, route intravenous; settings: read-out: Drug uptake
[6] = Plasma concentration in human U87MG cells xenografted mouse at 50 mg/kg, iv after 6 hrs; format: ADME, organism-based, U-87MG ATCC; set-up: dose 50 mg/kg, route intravenous
[7] = Plasma concentration in human U87MG cells xenografted mouse at 50 mg/kg, iv after 24 hrs; format: ADME, organism-based, U-87MG ATCC; set-up: dose 50 mg/kg, route intravenous
[8] = Drug level in tumor in human U87MG cells xenografted mouse at 50 mg/kg, iv after 6 hrs; format: ADME, organism-based, Neoplasm, U-87MG ATCC; set-up: dose 50 mg/kg, route intravenous; settings: read-out: Drug uptake
[9] = Drug level in tumor in human U87MG cells xenografted mouse at 50 mg/kg, iv after 24 hrs; format: ADME, organism-based, Neoplasm, U-87MG ATCC; set-up: dose 50 mg/kg, route intravenous; settings: read-out: Drug uptake
[10] = Plasma concentration in human U87MG cells xenografted mouse at 50 mg/kg, po after 6 hrs; format: ADME, organism-based, U-87MG ATCC; set-up: dose 50 mg/kg, route oral
[11] = Plasma concentration in human U87MG cells xenografted mouse at 50 mg/kg, po after 24 hrs; format: ADME, organism-based, U-87MG ATCC; set-up: dose 50 mg/kg, route oral
[12] = Drug level in tumor in human U87MG cells xenografted mouse at 50 mg/kg, po after 6 hrs; format: ADME, organism-based, Neoplasm, U-87MG ATCC; set-up: dose 50 mg/kg, route oral; settings: read-out: Drug uptake
[13] = Drug level in tumor in human U87MG cells xenografted mouse at 50 mg/kg, po after 24 hrs; format: ADME, organism-based, Neoplasm, U-87MG ATCC; set-up: dose 50 mg/kg, route oral; settings: read-out: Drug uptake
[14] = AUC (0 to infinity) in CD1 mouse at 2 mg/kg, iv; format: ADME, organism-based; set-up: time infinity, dose 2 mg/kg, route intravenous; settings: plasma
[15] = Volume of distribution at steady state in CD1 mouse at 2 mg/kg, iv; format: ADME, organism-based; set-up: dose 2 mg/kg, route intravenous; settings: in vivo, read-out: Vdss
[16] = Bioavailability in CD1 mouse at 2 mg/kg, iv; format: ADME, organism-based; settings: in vivo
[17] = AUC (0 to infinity) in CD1 mouse at 20 mg/kg, po; format: ADME, organism-based; set-up: time infinity, dose 20 mg/kg, route oral; settings: plasma
[18] = Cmax in CD1 mouse at 20 mg/kg, po; format: ADME, organism-based; set-up: dose 20 mg/kg, route oral; settings: in vivo
[19] = Tmax in CD1 mouse at 20 mg/kg, po; format: ADME, organism-based; set-up: dose 20 mg/kg, route oral; settings: in vivo

## Cc1c2c(n3c1CCN(C(=O)[C@H]1CCCN1)C[C@@H](C)[C@H](C)Nc1cc-3ccc1C(N)=O)CC(C)(C)CC2=O
[1]; read-out: solubility
  solubility: > 100 µg/mL

## Cc1c2c(n3c1CCN(C(=O)[C@H](C)O)C[C@@H](C)[C@H](C)Nc1cc-3ccc1C(N)=O)CC(C)(C)CC2=O
[1]; read-out: solubility
  solubility: 60 µg/mL (≈ 121 µM)

## Cc1c2c(n3c1CCN(C(=O)[C@H](C)N)CC[C@H](C)Nc1cc-3ccc1C(N)=O)CC(C)(C)CC2=O
[1]; read-out: solubility
  solubility: > 100 µg/mL

## Cc1c2c(n3c1CCN(C(=O)[C@H](C)N)C[C@@H](C)[C@H](C)Nc1cc-3ccc1C(N)=O)CC(C)(C)CC2=O
[1]; read-out: solubility
  solubility: 10 µg/mL (≈ 20.3 µM)
[2]
  concentration at 6 h: 36 ng/mL
[3]
  concentration at 24 h: 9 ng/mL
[4]
  concentration at 6 h: 693 ng/g
[5]
  concentration at 24 h: 910 ng/g
[6]
  concentration at 6 h: 102 ng/mL
[7]
  concentration at 24 h: 45 ng/mL
[8]
  concentration at 6 h: 967 ng/g
[9]
  concentration at 24 h: 772 ng/g
[10]
  concentration at 6 h: 53 ng/mL
[11]
  concentration at 24 h: 6 ng/mL
[12]
  concentration at 6 h: 309 ng/g
[13]
  concentration at 24 h: 242 ng/g
[14]
  AUC(0-inf): 542 ng·h/mL
[15]
  Vd: 30 L/kg
[16]
  bioavailability: 4%
[17]
  AUC(0-inf): 234 ng·h/mL
[18]
  Cmax: 22 ng/mL
[19]
  Tmax: 1 h

## CC[C@H](N)C(=O)N1CCc2c(C)c3c(n2-c2ccc(C(N)=O)c(c2)N[C@@H](C)[C@H](C)C1)CC(C)(C)CC3=O
[1]; read-out: solubility
  solubility: > 100 µg/mL

## Cc1c2c(n3c1CCN(C(=O)C(C)(C)N)C[C@@H](C)[C@H](C)Nc1cc-3ccc1C(N)=O)CC(C)(C)CC2=O
[1]; read-out: solubility
  solubility: > 100 µg/mL

## Cc1c2c(n3c1CCN(C(=O)[C@@H](N)C(C)C)C[C@@H](C)[C@H](C)Nc1cc-3ccc1C(N)=O)CC(C)(C)CC2=O
[1]; read-out: solubility
  solubility: > 100 µg/mL

## Cc1c2c(n3c1CCN(C(=O)[C@@H]1C[C@H](F)CN1)C[C@@H](C)[C@H](C)Nc1cc-3ccc1C(N)=O)CC(C)(C)CC2=O
[1]; read-out: solubility
  solubility: 100 µg/mL (≈ 186 µM)

## Cc1c2c(n3c1CCN(C(=O)[C@@H](O)C(C)C)C[C@@H](C)[C@H](C)Nc1cc-3ccc1C(N)=O)CC(C)(C)CC2=O
[1]; read-out: solubility
  solubility: 30 µg/mL (≈ 57.4 µM)

## Cc1c2c(n3c1CCN(C(=O)[C@@H]1CCCN1)C[C@@H](C)[C@H](C)Nc1cc-3ccc1C(N)=O)CC(C)(C)CC2=O
[1]; read-out: solubility
  solubility: > 100 µg/mL

## Cc1c2c(n3c1CCN(C(=O)C1(N)CCCC1)C[C@@H](C)[C@H](C)Nc1cc-3ccc1C(N)=O)CC(C)(C)CC2=O
[1]; read-out: solubility
  solubility: 53 µg/mL (≈ 99.3 µM)

## CC(=O)N1CCc2c(C)c3c(n2-c2ccc(C(N)=O)c(c2)N[C@@H](C)[C@H](C)C1)CC(C)(C)CC3=O
[1]; read-out: solubility
  solubility: 38 µg/mL (≈ 81.8 µM)

## Cc1c2c(n3c1CCN(C(=O)CN)C[C@@H](C)[C@H](C)Nc1cc-3ccc1C(N)=O)CC(C)(C)CC2=O
[1]; read-out: solubility
  solubility: 46 µg/mL (≈ 95.9 µM)

## Cc1c2c(n3c1CCCN1CCC[C@H]1CNc1cc-3ccc1C(N)=O)CC(C)(C)CC2=O
[1]
  solubility: 2324 µg/mL (≈ 5350 µM)

## Cc1c2c(n3c1CCN(C(=O)C1(N)CC1)C[C@@H](C)[C@H](C)Nc1cc-3ccc1C(N)=O)CC(C)(C)CC2=O
[1]; read-out: solubility
  solubility: 7 µg/mL (≈ 13.8 µM)

## Cc1c2c(n3c1CCCNC[C@H](C)Nc1cc-3ccc1C(N)=O)CC(C)(C)CC2=O
[1]; read-out: solubility
  solubility: > 100 µg/mL

From ChEMBL document CHEMBL1806368 (Bioorg Med Chem Lett, 2011)
